According to PubChem BioAssay AID2060485 (Molecular Pharmacology Branch, DTP, NCI, 2025):

Tested on: A375 multi-cell spheroids with HUVEC/MSC, viability
Experiment: Anticancer human tumor A375 cell line growth inhibition [GQUAD];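 further: spheroids exposed to compounds for seven days before readout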
Conditions: for IC50: curve of first compound; for viability, T/C: stronger effect = lower value
In short: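 Multi-cell-type spheroids of tumor cells with HUVEC and mesenchymal stem cells, treated with drug combinations. Concentrations descend in half-log steps from near clinical Cmax, or from 10 microM where Cmax is unknown; viability read-out.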

[1] = second compound 0.0316 µM, first compound 0.0316 µM
[2] = second compound 0.0316 µM, first compound 0.316 µM
[3] = second compound 0.1 µM, first compound 0.0316 µM
[4] = second compound 0.1 µM, first compound 0.316 µM
[5] = second compound 0.316 µM, first compound 0.0316 µM
[6] = second compound 0.316 µM, first compound 0.316 µM
[7] = second compound 1 µM, first compound 0.0316 µM
[8] = second compound 1 µM, first compound 0.316 µM
[9] = second compound 3.16 µM, first compound 0.0316 µM
[10] = second compound 3.16 µM, first compound 0.316 µM
[11] = second compound 10 µM, first compound 0.0316 µM
[12] = second compound 10 µM, first compound 0.316 µM
[13] = second compound 0.0316 µM, first compound 0.1 µM
[14] = second compound 0.0316 µM, first compound 1 µM
[15] = second compound 0.0316 µM, first compound 3.16 µM
[16] = second compound 0.0316 µM, first compound 10 µM
[17] = second compound 0.1 µM, first compound 0.1 µM
[18] = second compound 0.1 µM, first compound 1 µM
[19] = second compound 0.1 µM, first compound 3.16 µM
[20] = second compound 0.1 µM, first compound 10 µM
[21] = second compound 0.316 µM, first compound 0.1 µM
[22] = second compound 0.316 µM, first compound 1 µM
[23] = second compound 0.316 µM, first compound 3.16 µM
[24] = second compound 0.316 µM, first compound 10 µM
[25] = second compound 1 µM, first compound 0.1 µM
[26] = second compound 1 µM, first compound 1 µM
[27] = second compound 1 µM, first compound 3.16 µM
[28] = second compound 1 µM, first compound 10 µM
[29] = second compound 3.16 µM, first compound 0.1 µM
[30] = second compound 3.16 µM, first compound 1 µM
[31] = second compound 3.16 µM, first compound 3.16 µM
[32] = second compound 3.16 µM, first compound 10 µM
[33] = second compound 10 µM, first compound 0.1 µM
[34] = second compound 10 µM, first compound 1 µM
[35] = second compound 10 µM, first compound 3.16 µM
[36] = second compound 10 µM, first compound 10 µM

For `Cc1[nH]c2ccccc2c1CCNCc1ccc(/C=C/C(=O)NO)cc1` + Cc1cnc(CNC(=O)c2c(=O)c3ccc(N4CCCN(C)CC4)nc3n3c2sc2ccccc23)cn1, the IC50 (second compound 0.0316 µM) was 112 nM, the IC50 (second compound 0.1 µM) was 48.8 nM and the IC50 (second compound 0.316 µM) was 35.9 nM. It also gave an IC50 (second compound 1 µM) of less than 0.999 nM, an IC50 (second compound 3.16 µM) of less than 0.999 nM and an IC50 (second compound 10 µM) of less than 0.999 nM. It also gave a viability, T/C (second compound 0.0316 µM, first compound 0.000999 µM) of 98.2%, a viability, T/C (second compound 0.0316 µM, first compound 0.00316 µM) of 103% and a viability, T/C (second compound 0.0316 µM, first compound 0.00999 µM) of 123%. It also gave a viability, T/C [1] of 113%, a viability, T/C (second compound 0.0316 µM, first compound 0.0999 µM) of 54.4% and a viability, T/C [2] of 10.3%. It also gave a viability, T/C (second compound 0.1 µM, first compound 0.000999 µM) of 74.6%, a viability, T/C (second compound 0.1 µM, first compound 0.00316 µM) of 69.7% and a viability, T/C (second compound 0.1 µM, first compound 0.00999 µM) of 74%. The viability, T/C [3] was 60.5%, the viability, T/C (second compound 0.1 µM, first compound 0.0999 µM) was 31.7% and the viability, T/C [4] was 8.85%. It also gave a viability, T/C (second compound 0.316 µM, first compound 0.000999 µM) of 54.1%, a viability, T/C (second compound 0.316 µM, first compound 0.00316 µM) of 55.5% and a viability, T/C (second compound 0.316 µM, first compound 0.00999 µM) of 49%. The viability, T/C [5] was 53.9%, the viability, T/C (second compound 0.316 µM, first compound 0.0999 µM) was 25.2% and the viability, T/C [6] was 8.14%. The viability, T/C (second compound 1 µM, first compound 0.000999 µM) was 37.2%, the viability, T/C (second compound 1 µM, first compound 0.00316 µM) was 42.2% and the viability, T/C (second compound 1 µM, first compound 0.00999 µM) was 39.4%. The viability, T/C [7] was 35.4%, the viability, T/C (second compound 1 µM, first compound 0.0999 µM) was 18.7% and the viability, T/C [8] was 1.63%. It also gave a viability, T/C (second compound 3.16 µM, first compound 0.000999 µM) of 35.6%, a viability, T/C (second compound 3.16 µM, first compound 0.00316 µM) of 30.9% and a viability, T/C (second compound 3.16 µM, first compound 0.00999 µM) of 35.5%. The viability, T/C [9] was 34.1%, the viability, T/C (second compound 3.16 µM, first compound 0.0999 µM) was 13.6% and the viability, T/C [10] was 0.08%. The viability, T/C (second compound 10 µM, first compound 0.000999 µM) was 30.9%, the viability, T/C (second compound 10 µM, first compound 0.00316 µM) was 25.6% and the viability, T/C (second compound 10 µM, first compound 0.00999 µM) was 29.1%. For the same compound, the viability, T/C [11] was 25%, the viability, T/C (second compound 10 µM, first compound 0.0999 µM) was 8.95% and the viability, T/C [12] was 0.14%.

Compound `COc1ncnc(C2CC2)c1-c1ncc2cnn(Cc3ccc(-c4nc(C(F)(F)F)cn4C(C)C)cc3)c2n1` + CN(C)c1ccc(Nc2c3ccc(NC(=O)CCN4CCCC4)cc3nc3cc(NC(=O)CCN4CCCC4)ccc23)cc1 has an IC50 (second compound 0.0316 µM) greater than 10000 nM, an IC50 (second compound 0.1 µM) greater than 10000 nM and an IC50 (second compound 0.316 µM) greater than 10000 nM. The IC50 (second compound 1 µM) was greater than 10000 nM, the IC50 (second compound 3.16 µM) was greater than 10000 nM and the IC50 (second compound 10 µM) was greater than 10000 nM. For the same compound, the viability, T/C [1] was 108%, the viability, T/C [13] was 100% and the viability, T/C [2] was 115%. The viability, T/C [14] was 104%, the viability, T/C [15] was 108% and the viability, T/C [16] was 104%. For the same compound, the viability, T/C [3] was 105%, the viability, T/C [17] was 105% and the viability, T/C [4] was 102%. The viability, T/C [18] was 103%, the viability, T/C [19] was 105% and the viability, T/C [20] was 114%. It also gave a viability, T/C [5] of 103%, a viability, T/C [21] of 110% and a viability, T/C [6] of 110%. The viability, T/C [22] was 101%, the viability, T/C [23] was 107% and the viability, T/C [24] was 105%. The viability, T/C [7] was 109%, the viability, T/C [25] was 91% and the viability, T/C [8] was 101%. The viability, T/C [26] was 112%, the viability, T/C [27] was 104% and the viability, T/C [28] was 102%. For the same compound, the viability, T/C [9] was 109%, the viability, T/C [29] was 102% and the viability, T/C [10] was 109%. The viability, T/C [30] was 104%, the viability, T/C [31] was 106% and the viability, T/C [32] was 104%. The viability, T/C [11] was 93%, the viability, T/C [33] was 101% and the viability, T/C [12] was 94%. The viability, T/C [34] was 98.9%, the viability, T/C [35] was 96.1% and the viability, T/C [36] was 92.8%.

`O=C(NO)c1cnc(N2CCN(S(=O)(=O)c3ccc4ccccc4c3)CC2)nc1` + Cc1cnc(CNC(=O)c2c(=O)c3ccc(N4CCCN(C)CC4)nc3n3c2sc2ccccc23)cn1 gave an IC50 (second compound 0.0316 µM) of 210 nM, an IC50 (second compound 0.1 µM) of 124 nM and an IC50 (second compound 0.316 µM) of 109 nM. It also gave an IC50 (second compound 1 µM) of less than 31.6 nM, an IC50 (second compound 3.16 µM) of less than 31.6 nM and an IC50 (second compound 10 µM) of less than 31.6 nM. It also gave a viability, T/C [1] of 115%, a viability, T/C [13] of 124% and a viability, T/C [2] of 11.9%. It also gave a viability, T/C [14] of 0.22%, a viability, T/C [15] of 0.16% and a viability, T/C [16] of 0.19%. The viability, T/C [3] was 75.2%, the viability, T/C [17] was 59.1% and the viability, T/C [4] was 10.8%. It also gave a viability, T/C [18] of 0.18%, a viability, T/C [19] of 0.13% and a viability, T/C [20] of 0.17%. It also gave a viability, T/C [5] of 64.1%, a viability, T/C [21] of 53.2% and a viability, T/C [6] of 9.31%. For the same compound, the viability, T/C [22] was 0.13%, the viability, T/C [23] was 0.11% and the viability, T/C [24] was 0.14%. For the same compound, the viability, T/C [7] was 44.6%, the viability, T/C [25] was 36.8% and the viability, T/C [8] was 0.9%. The viability, T/C [26] was 0.11%, the viability, T/C [27] was 0.09% and the viability, T/C [28] was 0.12%. It also gave a viability, T/C [9] of 32.8%, a viability, T/C [29] of 23.3% and a viability, T/C [10] of 0.17%. The viability, T/C [30] was 0.11%, the viability, T/C [31] was 0.11% and the viability, T/C [32] was 0.15%. The viability, T/C [11] was 28.5%, the viability, T/C [33] was 22.6% and the viability, T/C [12] was 0.2%. For the same compound, the viability, T/C [34] was 0.12%, the viability, T/C [35] was 0.18% and the viability, T/C [36] was 0.21%.
